Measured values as given in patent publication US8759402B2, “Method to inhibit ischemia and reperfusion injury” (Radical Therapeutix, priority 2002, dated 2014).
Blank lines part the entries; values can stand above or below the compound they belong to.

How the values were obtained:
[1] = test system: isolated rabbit heart; assay: Langendorff perfusion, global ischemia/reperfusion of isolated rabbit heart (infarct size by TTC, CK release)
Procedure: The global ischemia protocol was adapted from that of Tsuchida et al. (1994). All procedures were approved by the Animal Care and Use Committee at The Scripps Research Institute (TSRI). To obtain isolated hearts, hearts were excised from an anesthetized mammal such as a rabbit and quickly cannulated onto the Langendorff perfusion apparatus. The heart is perfused with Krebs-Ringer buffer for 15 minutes before ischemia/reperfusion episodes. No-flow ischemia is maintained for 30 minutes and reperfusion is accomplished by restoring flow for 15 minutes (unless otherwise indicated). Ischemic preconditioning can be induced by three 5 minute cycles of no-flow ischemia and reperfusion immediately preceding the regular ischemia and reperfusion. In brief, the heart was excised from the anesthetized rabbit and quickly cannulated onto the Langendorff perfusion apparatus. The heart was perfused with Krebs-Ringer buffer for 15 minutes before ischemia/reperfusion episodes. No-flow ischemia was maintained for 30 minutes and reperfusion was accomplished by restoring flow for 15 minutes (unless otherwise indicated). Ischemic preconditioning was induced by three 5 minute cycles of no-flow ischemia and reperfusion immediately preceding the regular ischemia and reperfusion. The efficacy of these interventions was verified by measurement of creatine kinase (CK) release and infarct size measurement using triphenyl tetrazolium chloride (TTC) staining (Pain et al., 2000; Downey, 2001). The measurement of infarct size was essentially identical to that detailed by Downey (2001) except for the method of quantitation. After the TTC reaction, the heart slices were scanned into TIFF files and analyzed with Adobe Photoshop 5.5. The images were digitally manipulated in an identical manner to ensure equivalent outcome. […] The histogram counts of red and white were recorded. The percent infarction was calculated as white counts divided by the sum of red plus white counts.

[2] = test system: isolated rat hearts; assay: Langendorff perfusion, no-flow ischemia/reperfusion of isolated rat heart (infarct size by TTC, CK release, coronary flow); settings: for coronary flow after ischemia: treated hearts, reperfusion; for CK release (in words) / infarct size (in words): cimetidine 200-600 μM, sulfaphenazole 10 μM and 300 μM; for infarct size (in words): 2 hours reperfusion
Procedure: FIG. 2. […] Adult rat hearts were perfused in Langendorff mode for 20 minutes, then subjected to 30 minutes no-flow ischemia followed by a 2 hour reperfusion. […] (A) After 2 hours of reperfusion, hearts were frozen and assessed for infarct size using TTC. Coronary effluent was collected for 15 minutes immediately before and after ischemia and assessed for CK release. […] All procedures were approved by the Animal Care and Use Committee at The Scripps Research Institute (TSRI). […] No-flow ischemia was maintained for 30 minutes and reperfusion was accomplished by restoring flow for 15 minutes for creatine kinase (CK) release determination and dihydroethidium (DHE) staining, or 120 minutes for infarct size determination by triphenyl tetrazolium chloride (TTC) staining. Measurement of CK activity was performed using the CK EC 2.7.3.2 UV-Test kit (Sigma) as per the manufacturer's instructions. The measurement of infarct size after TTC staining was performed as described in Example 1.

[3] = test system: mitochondrial respiratory chain Complex I, II, IV; assay: Oxygen consumption (respiration) of mitochondria from perfused rat hearts; settings: hearts perfused with chloramphenicol for 30 minutes
Procedure: FIG. 4. […] (B) Mitochondrial respiration was measured by polarography. […] Error bars represent standard deviation. […] Hearts were rapidly minced in ice-cold MSE buffer (in mmol/L, mannitol 220, sucrose 70, EGTA 2, MOPS 5 (pH 7.4), and taurine 2 supplemented with 0.2% fatty acid-free bovine serum albumin (BSA)). Heart tissue was homogenized in MSE with a Polytron type tissue grinder at 11,000 rpm for 2.5 seconds followed by 2 quick strokes at 500 rpm with a loose fit Potter-Elvehjem tissue grinder. The homogenate was centrifuged at 500 g twice for 5 minutes, saving the supernatant. Mitochondria were pelleted from the supernatant by centrifugation at 3000 g twice, and the pellet was rinsed with MSE buffer. The supernatant was saved as crude cytosol. The final pellet was rinsed and resuspended in 50 μl Incubation Medium (in mmol/L, mannitol 220, sucrose 70, EGTA 1, MOPS 5 (pH 7.4), taurine 2, MgCl2 10, and KH2PO4 5, supplemented with 0.2% fatty acid-free BSA) (Scholte et al., 1997). Mitochondria were incubated for 15 minutes on wet ice and protein concentration was determined with BSA as a standard by a Bradford assay. All work was performed on wet ice at 0° C. Oxygen consumption was measured at 30° C. with a Clark type oxygen electrode (Instech) in 600 μl KCl respiration buffer (in mmol/L: KCl 140, EGTA 1, MOPS 10 (pH 7.4), MgCl2 10, and KH2PO4 5, supplemented with 0.2% fatty acid-free BSA) (Scholte et al., 1997; Chance et al., 1961; McKee et al., 1990). Complex II activity was measured using 200 μg mitochondria with succinate, 5 mM, as a substrate. […] For each complex the ADP-stimulated respiration rate (state 3) was measured after the addition of 2 mM ADP; the ADP-independent respiration rate, oligomycin-insensitive (state 4) was measured after the addition of 2 μM oligomycin; and the maximal respiration rate was measured after uncoupling the mitochondria with 2 μM FCCP. Rates were calculated as nA O2/min/mg protein after subtracting the rate that was insensitive to the inhibitors antimycin A, 1 μM, for complex III, and KCN, 1 mM, for complex IV.

[4] = test system: cytochrome oxidase subunit I; assay: Immunodetection of mitochondrial-encoded proteins after CAP infusion (Example I); set-up: species or system rabbit; settings: CAP infusion for as little as 15 minutes
[5] = test system: mitochondrial-encoded proteins (CO-1, ND3); assay: Western blotting of mitochondrial-encoded proteins after CAP perfusion (Example II); set-up: species or system rat; settings: perfusion with CAP for 30 minutes
[6] = test system: rabbit heart (circumflex coronary artery occlusion); assay: Rabbit circumflex coronary artery occlusion and reperfusion; assay type: in vivo; settings: n=6
[7] = molecular target: T1, CYP2D2 (Rattus norvegicus, UniProt P10634); assay: AMMC demethylase activity in CYP2D2 supersomes; settings: sulfaphenazole 50 μM
T1 sequence (P10634 1-500): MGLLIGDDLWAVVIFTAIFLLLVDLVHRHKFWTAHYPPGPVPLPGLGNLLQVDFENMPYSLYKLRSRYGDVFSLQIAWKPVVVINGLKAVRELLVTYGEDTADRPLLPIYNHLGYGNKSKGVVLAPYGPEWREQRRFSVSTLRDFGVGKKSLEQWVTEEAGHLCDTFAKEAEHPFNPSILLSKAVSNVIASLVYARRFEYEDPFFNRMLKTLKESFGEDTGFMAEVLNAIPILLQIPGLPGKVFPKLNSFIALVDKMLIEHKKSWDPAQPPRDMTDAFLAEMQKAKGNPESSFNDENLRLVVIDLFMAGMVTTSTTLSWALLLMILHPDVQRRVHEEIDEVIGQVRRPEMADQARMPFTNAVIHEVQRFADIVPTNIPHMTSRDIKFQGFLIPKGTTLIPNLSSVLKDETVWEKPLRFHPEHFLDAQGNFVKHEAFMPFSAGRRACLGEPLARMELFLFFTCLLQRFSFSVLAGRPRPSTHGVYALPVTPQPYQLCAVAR

[8] = test system: H9c2 and neonatal rat cardiomyocytes; assay: Hydrogen peroxide-induced apoptosis and superoxide production in cells
[9] = molecular target: CYP2D6 (Homo sapiens, UniProt P10635); assay: AMMC demethylation by recombinant CYP2D6; assay type: biochemical; settings: recombinant system
[10] = test system: AMMC demethylase (cytochrome P450) in rat liver microsomes; assay: Fluorometric cytochrome P450 assay, AMMC demethylation in rat liver microsomes; assay type: biochemical; settings: male, Sprague-Dawley, pH 7.4, probe AMMC (30 μM), AMMC substrate, read-out: IC50, inhibition of AMMC demethylation
Procedure: Microsomes were isolated from rat livers (Sprague-Dawley, male, 6-8 weeks) by differential centrifugation as described by Walles and coworkers (2001). Homogenized tissue was centrifuged at 11,000 g for 30 minutes at 4° C. The supernatant was further centrifuged at 170,000 g for 60 minutes at 4° C. The resulting pellet was resuspended in KCl buffer and centrifuged at 200,000 g for 40 minutes at 4° C. The microsomal fraction was then transferred into Tris-sucrose buffer (0.25 M sucrose, 20 mM Tris buffer, 5 mM EDTA). Protein concentrations were determined by bicinchoninic acid micro assay (Pierce). Microsomal solutions were aliquoted and stored at −80° C. until further use.

[11] = test system: p46 (EF-Tumt) phosphorylation; assay: Phosphorylation of mitochondrial p46 (EF-Tumt) with [γ-32P]ATP in the presence of kinase inhibitors; assay type: biochemical, rabbit
Procedure: For phosphorylation reactions, 100 μg of purified mitochondria was incubated in MSE buffer supplemented with 25 mmol/L HEPES-KOH [pH 7.5], 10 mmol/L magnesium acetate, 10 μmol/L ATP (cold), and 10 μCi [γ-^32P]ATP for 30 minutes at 30° C. with or without 250 μg of cytosol. The reaction mixture was subsequently centrifuged for 5 minutes at 10,000 g. The mitochondrial pellet was resuspended in 500 μL of MC buffer and washed twice. The mitochondrial proteins were resolved on a 12% polyacrylamide gel, transferred to nitrocellulose, and detected by autoradiography.
For protein kinase inhibition experiments, cytosols were incubated with the inhibitors at the indicated concentrations, then mitochondria were added and the reaction was initiated with the addition of ATP. Serine/threonine kinase inhibitors (Calbiochem, catalog No. 539572) included bisindolylmaleimide I, 10 nmol/L; H-89, 48 μmol/L; protein kinase G inhibitor, 86 μmol/L; ML-7, 0.3 μmol/L; KN-93, 0.37 μmol/L; and staurosporine, 10 nmol/L. Tyrosine kinase inhibitors (Calbiochem, catalogue No. 657021) included genistein, 25 μmol/L; PP2, 5 nmol/L; AG490, 15 μmol/L; AG1296, 1 μmol/L; and AG1478, 3 nmol/L.

[12] = mitochondria incubated with control or ischemic cytosols, H-89 48 μmol/L, genistein 25 μmol/L

Sequence of CYP2D6 (P10635 whole entry): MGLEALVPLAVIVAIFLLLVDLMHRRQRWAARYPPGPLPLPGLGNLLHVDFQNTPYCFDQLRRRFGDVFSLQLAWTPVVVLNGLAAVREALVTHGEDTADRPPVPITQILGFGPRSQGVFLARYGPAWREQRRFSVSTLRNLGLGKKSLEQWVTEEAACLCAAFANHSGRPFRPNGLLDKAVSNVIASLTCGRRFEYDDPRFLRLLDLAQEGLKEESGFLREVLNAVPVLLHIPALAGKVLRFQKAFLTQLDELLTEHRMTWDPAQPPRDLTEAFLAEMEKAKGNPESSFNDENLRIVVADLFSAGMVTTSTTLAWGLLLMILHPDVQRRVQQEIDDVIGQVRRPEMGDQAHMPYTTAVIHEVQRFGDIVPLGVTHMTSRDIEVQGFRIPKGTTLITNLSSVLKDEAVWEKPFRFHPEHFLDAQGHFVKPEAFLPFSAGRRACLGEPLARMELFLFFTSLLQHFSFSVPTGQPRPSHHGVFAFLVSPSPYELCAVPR

inhibition of CYP2D2 activity (AMMC demethylase) [7]: did not appear to significantly inhibit | inhibition of CYP2D6 (AMMC demethylation) [9]: not inhibited | IC50 at 1 h [10]: 500 nM
Compound: Nc1ccc(S(=O)(=O)Nc2ccnn2-c2ccccc2)cc1 [sulfaphenazole]
CK release (in words) [2]: significant reduction | infarct size (in words) [2]: significant reduction | coronary flow after ischemia [2]: prevent the associated drop in coronary flow | rescue from hydrogen peroxide-induced apoptosis and superoxide production [8]: rescued

phosphorylation of p46 [11, 12]: did not affect
Compound: O=S(=O)(NCCNC/C=C/c1ccc(Br)cc1)c1cccc2cnccc12 [H-89]

phosphorylation of p46 ([11]; mitochondria from an ischemic heart incubated with genistein, no cytosol): able to inhibit | phosphorylation of p46 [11, 12]: reduced phosphorylation
Compound: O=c1c(-c2ccc(O)cc2)coc2cc(O)cc(O)c12 [genistein]

The next lines start with the compound.

Compound: O=C(N[C@H](CO)[C@H](O)c1ccc([N+](=O)[O-])cc1)C(Cl)Cl [CAP, chloramphenicol]
infarct size after ischemia and reperfusion ([1]; 100 μg/mL CAP in buffer throughout: 15 min stabilization, 30 min global ischemia, 2 h reperfusion, mean±SEM, untreated 64.1 (±4.1)): 43.1 (±6.4) | infarct size ([1]; CAP administered only in the last 15 minutes of the 2 hour reperfusion (control for TTC interference)): 69.2±5.7 | CK release after global ischemia ([1]; CAP pretreatment, 100 μg/mL): reduced | infarct size ([2]; CAP 300 μm before and after global no-flow ischemia (I/R+CAP), 30 min ischemia, 2 h reperfusion, SEM, n=5, untreated 43.2±3.2%): 16.0±3.6% | CK released after ischemia ([2]; CAP administered prior to ischemia, SEM, n=5, untreated 2.25±0.28): 0.27±0.13 U/15 min | infarct size ([2]; chloramphenicol administered immediately after ischemia (at reperfusion), n=5, untreated 43.2%): 21.7% | reduction of infarct size ([2]; pretreatment of hearts prior to ischemia and reperfusion (summary)): about 90% | coronary flow after ischemia [2]: prevent the associated drop in coronary flow | Complex I State 4 ([3]; −CAP 13.74 ± 6.33): 12.09 ± 4.59 n Atoms O/min/mg | Complex II State 4 ([3]; −CAP 21.70 ± 5.89): 23.04 ± 7.32 n Atoms O/min/mg | Complex II State 3 ([3]; −CAP 85.47 ± 22.2): 83.58 ± 14.4 n Atoms O/min/mg | Complex IV State 4 ([3]; −CAP 113.99 ± 21): 116.89 ± 23 n Atoms O/min/mg | Complex I State 3 ([3]; −CAP 158.57 ± 32): 162.99 ± 31 n Atoms O/min/mg | Complex IV State 3 ([3]; −CAP 209.85 ± 40): 201.09 ± 23 n Atoms O/min/mg | immunodetection of mitochondrial-encoded cytochrome oxidase I [4]: near-complete loss | levels of mitochondrial-encoded proteins and respiratory chain activity [5]: not sufficient to alter | infarct size, of the area at risk ([6]; CAP 20 mg/kg i.v. 30 min before 30 min occlusion, 4 h reperfusion, untreated 49.3 ±17.7): 18.3% | post-ischemic hypotension (decrease in left ventricular pressure from baseline) ([6]; CAP 20 mg/kg i.v., untreated −34.2±2.3): −13.3±2.2 mm H2O

Compound: CN/C(=N/CCSCc1nc[nH]c1C)NC#N [cimetidine]
CK release (in words) [2]: reduced CK release | infarct size (in words) [2]: dose-dependent reduction | coronary flow after ischemia [2]: prevent the associated drop in coronary flow

Compound: gentamicin sulfate
cardioprotection ([2]; gentamicin in perfusion buffer): not cardioprotective
